Like-named read-outs stand apart in the source and are kept apart here.
Assays:
HIV-1 (strain LAV) = test: microbe, parasite or virus in culture; assay type: cell-based
Description: It is often desirable to screen a number of racemic mixtures of nucleosides as a preliminary step to determine which warrant further resolution into enantiomerically enriched components and evaluation of antiviral activity. The ability of nucleosides to inhibit HIV can be measured by various experimental techniques. The technique used herein, and described in detail below, measures the inhibition of viral replication in phytohemagglutinin (PHA) stimulated human peripheral blood mononuclear (PBM) cells infected with HIV-1 (strain LAV). The amount of virus produced is determined by measuring the virus-coded reverse transcriptase enzyme. The amount of enzyme produced is proportional to the amount of virus produced.
A. Three-day-old phytohemagglutinin-stimulated PBM cells (10^6 cells/ml) from hepatitis B and HIV-1 seronegative healthy donors were infected with HIV-1 (strain LAV) at a concentration of about 100 times the 50% tissue culture infectious dose (TICD 50) per ml and cultured in the presence and absence of various concentrations of antiviral compounds.
B. Approximately one hour after infection, the medium, with the compound to be tested (2 times the final concentration in medium) or without compound, was added to the flasks (5 ml; final volume 10 ml). AZT was used as a positive control.
C. The cells were exposed to the virus (about 2×10^5 dpm/ml, as determined by reverse transcriptase assay) and then placed in a CO2 incubator. HIV-1 (strain LAV) was obtained from the Center for Disease Control, Atlanta, Ga. The methods used for culturing the PBM cells, harvesting the virus and determining the reverse transcriptase activity were those described by McDougal et al. (J. Immun. Meth. 76, 171-183, 1985) and Spira et al. (J. Clin. Meth. 25, 97-99, 1987), except that fungizone was not included in the medium (see Schinazi, et al., Antimicrob. Agents Chemother. 32, 1784-1787 (1988); Id., 34:1061-1067 (1990)).
D. On day 6, the cells and supernatant were transferred to a 15 ml tube and centrifuged at about 900 g for 10 minutes. Five ml of supernatant were removed and the virus was concentrated by centrifugation at 40,000 rpm for 30 minutes (Beckman 70.1 Ti rotor). The solubilized virus pellet was processed for determination of the levels of reverse transcriptase. Results are expressed in dpm/ml of sampled supernatant. Virus from smaller volumes of supernatant (1 ml) can also be concentrated by centrifugation prior to solubilization and determination of reverse transcriptase levels.

[1] = target: reverse transcriptase activity; conditions: read-out: EC50, concentration required to reduce the reverse transcriptase activity by 50%; cited from earlier work
[2] = Cytotoxicity in mitogen stimulated uninfected human PBM cells (trypan blue exclusion); assay type: cell-based
Description: The cells were counted after 6 days using a hemacytometer and the trypan blue exclusion method, as described by Schinazi et al., Antimicrobial Agents and Chemotherapy, 22(3), 499 (1982).

[3] = Human immunodeficiency virus 1, PBMC, comparison nucleosides, source not stated, read-out: EC50

Q: For `[N-]=[N+]=N[C@H]1C[C@H](n2ccc(=O)[nH]c2=O)O[C@@H]1CO` [AZDU, 3′-azido-2′,3′-dideoxyuridine, reference compound], which EC50 (HIV-1 (strain LAV); [3]) is on record?
A: 0.18 to 0.46 µM

Q: With `Nc1ncnc2c1ncn2[C@H]1CC[C@@H](CO)O1` [DDA, 2′,3′-dideoxyadenosine, reference compound] as the compound, how does the EC50 (HIV-1 (strain LAV); [3]) read?
A: 0.91 µM

Q: For `Cc1cn([C@H]2CC[C@@H](CO)O2)c(=O)[nH]c1=O` [DDT, 3′-dideoxythymidine, reference compound], which EC50 (HIV-1 (strain LAV); comparison nucleosides, source not stated, read-out: EC50) is on record?
A: 0.17 µM

Q: For `Nc1nc2c(ncn2[C@H]2C=C[C@@H](CO)O2)c(=O)[nH]1` [(+)-enantiomer of carbovir, 2′,3′-didehydro-2′,3′-dideoxyguanosine], which EC50 [1] is on record?
A: > 60 µM

Q: Which DPM/ml (HIV-1 (strain LAV); 0.00085 μM) does the source give for `Nc1ccn(C2CSC(CO)O2)c(=O)n1` (stereo not drawn) [BCH-189 (+), 2-hydroxymethyl-5-(cytosin-1-yl)-1,3-oxathiolane] here?
A: 71,795 DPM/ml

Q: What about the DPM/ml (HIV-1 (strain LAV); 0.00425 μM) of the same compound?
A: 99,710 DPM/ml

Q: And the DPM/ml (HIV-1 (strain LAV); 0.0085 μM)?
A: 68,355 DPM/ml

Q: And the DPM/ml (HIV-1 (strain LAV); 0.0415 μM)?
A: 82,845 DPM/ml

Q: And the DPM/ml (HIV-1 (strain LAV); 0.0825 μM)?
A: 65,100 DPM/ml

Q: What about the DPM/ml (HIV-1 (strain LAV); 0.412 μM) of the same compound?
A: 43,260 DPM/ml

Q: What about the inhibition at 0.00085 µM (HIV-1 (strain LAV); Human immunodeficiency virus 1, PBMC, 0.00085 μM, read-out: % Inhibition (Corrected)) of the same compound?
A: 28.7%

Q: And the inhibition at 0.00425 µM (HIV-1 (strain LAV); Human immunodeficiency virus 1, PBMC, 0.00425 μM, read-out: % Inhibition (Corrected))?
A: -2.1%

Q: And the inhibition at 0.0085 µM (HIV-1 (strain LAV); Human immunodeficiency virus 1, PBMC, 0.0085 μM, read-out: % Inhibition (Corrected))?
A: 32.5%

Q: And the inhibition at 0.0415 µM (HIV-1 (strain LAV); Human immunodeficiency virus 1, PBMC, 0.0415 μM, read-out: % Inhibition (Corrected))?
A: 16.5%

Q: What about the inhibition at 0.0825 µM (HIV-1 (strain LAV); Human immunodeficiency virus 1, PBMC, 0.0825 μM, read-out: % Inhibition (Corrected)) of the same compound?
A: 36.1%

Q: And the inhibition at 0.412 µM (HIV-1 (strain LAV); Human immunodeficiency virus 1, PBMC, 0.412 μM, read-out: % Inhibition (Corrected))?
A: 60.3%

Q: And the EC50 (HIV-1 (strain LAV); human PBM cells infected with HIV-1, enantiomers isolated by chiral HPLC (Example 3), read-out: EC50)?
A: 0.23 µM

Q: What does the source list for `Nc1nc(=O)n(C2CSC(CO)O2)cc1F` (single isomer, unassigned; (-)) [DLS-058 (−), (−)-2-hydroxymethyl-5-(5-fluorocytosin-1-yl)-1,3-oxathiolane]?
A: activity against HBV (HBV (hepatitis B virus)): significant activity; % Inhibition (Corrected) (HIV-1 (strain LAV); 0.001 μM, listed as FTC (−)): 23.8%; DPM/ml (HIV-1 (strain LAV); 0.001 μM, listed as FTC (−)): 76,275 DPM/ml; % Inhibition (Corrected) (HIV-1 (strain LAV); 0.005 μM, listed as FTC (−)): 43.3%; DPM/ml (HIV-1 (strain LAV); 0.005 μM, listed as FTC (−)): 58,590 DPM/ml; % Inhibition (Corrected) (HIV-1 (strain LAV); 0.01 μM, listed as FTC (−)): 24.8%; DPM/ml (HIV-1 (strain LAV); 0.01 μM, listed as FTC (−)): 75,350 DPM/ml; % Inhibition (Corrected) (HIV-1 (strain LAV); 0.05 μM, listed as FTC (−)): 76.2%; DPM/ml (HIV-1 (strain LAV); 0.05 μM, listed as FTC (−)): 28,890 DPM/ml; % Inhibition (Corrected) (HIV-1 (strain LAV); 0.1 μM, listed as FTC (−)): 93.5%; DPM/ml (HIV-1 (strain LAV); 0.1 μM, listed as FTC (−)): 13,175 DPM/ml; % Inhibition (Corrected) (HIV-1 (strain LAV); 0.5 μM, listed as FTC (−)): 97.6%; DPM/ml (HIV-1 (strain LAV); 0.5 μM, listed as FTC (−)): 9,485 DPM/ml; EC50 (HIV-1 (strain LAV); summary range, read-out: EC50 against HIV): 0.0077 to 0.02 µM; IC50 at 6 days [2]: > 100 µM

Source: patent publication US20090239887A1, “Method of resolution and antiviral activity of 1,3-oxathiolane nucleoside enantiomers” (Emory University, priority 1990, published 2009)
